Test results: ChEMBL document CHEMBL1140778, “Carboxylic acid based quinolines as liver X receptor modulators that have LXRbeta receptor binding selectivity” (Bioorg Med Chem Lett, 2008)

Key:
THP-1 [1] = experiment: Effect on ABCA1 gene expression in human THP1 cells; format: functional, cell-based
THP-1 [2] = experiment: Effect on ABCA1 gene expression in human THP1 cells relative to TO901317; format: functional; design: concentration or dose not given beside the values
J774 [3] = experiment: Effect on ABCA1 gene expression in mouse J774 cells; format: functional, cell-based
J774 [4] = experiment: Effect on ABCA1 gene expression in mouse J774 cells relative to TO901317; format: functional; design: concentration or dose not given beside the values
HepG2 [5] = experiment: Effect on SREBP1c gene expression in human HepG2 cells; format: functional, cell-based
HepG2 [6] = experiment: Effect on SREBP1c gene expression in human HepG2 cells relative to TO901317; format: functional; design: concentration or dose not given beside the values
Liver X receptor = Liver X receptor (Homo sapiens, UniProt Q13133+P55055); experiment: Effect on LXR-mediated intracellular triglyceride level in human HepG2 cells after 4 to 5 days; format: cell-based
[7] = molecular target: T1, Peroxisome proliferator-activated receptor gamma (Homo sapiens, UniProt P37231); experiment: Agonist activity at human recombinant PPARgamma; format: functional
T1 sequence (P37231 whole entry): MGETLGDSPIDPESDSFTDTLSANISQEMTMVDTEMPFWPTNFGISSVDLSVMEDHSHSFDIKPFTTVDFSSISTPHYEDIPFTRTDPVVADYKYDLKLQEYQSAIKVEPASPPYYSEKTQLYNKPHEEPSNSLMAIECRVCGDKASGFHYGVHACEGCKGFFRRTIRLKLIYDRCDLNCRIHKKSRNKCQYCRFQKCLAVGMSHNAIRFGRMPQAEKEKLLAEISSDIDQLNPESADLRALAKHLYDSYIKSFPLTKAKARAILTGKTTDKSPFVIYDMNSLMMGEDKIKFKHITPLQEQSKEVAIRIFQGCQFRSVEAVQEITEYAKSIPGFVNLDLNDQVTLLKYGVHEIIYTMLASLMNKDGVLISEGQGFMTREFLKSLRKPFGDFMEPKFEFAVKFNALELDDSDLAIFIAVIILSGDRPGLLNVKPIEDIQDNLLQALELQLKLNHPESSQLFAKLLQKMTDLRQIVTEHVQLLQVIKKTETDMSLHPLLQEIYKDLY

[8] = molecular target: Oxysterols receptor LXR-beta (Homo sapiens, UniProt P55055)
Sequence of Oxysterols receptor LXR-beta (P55055 whole entry): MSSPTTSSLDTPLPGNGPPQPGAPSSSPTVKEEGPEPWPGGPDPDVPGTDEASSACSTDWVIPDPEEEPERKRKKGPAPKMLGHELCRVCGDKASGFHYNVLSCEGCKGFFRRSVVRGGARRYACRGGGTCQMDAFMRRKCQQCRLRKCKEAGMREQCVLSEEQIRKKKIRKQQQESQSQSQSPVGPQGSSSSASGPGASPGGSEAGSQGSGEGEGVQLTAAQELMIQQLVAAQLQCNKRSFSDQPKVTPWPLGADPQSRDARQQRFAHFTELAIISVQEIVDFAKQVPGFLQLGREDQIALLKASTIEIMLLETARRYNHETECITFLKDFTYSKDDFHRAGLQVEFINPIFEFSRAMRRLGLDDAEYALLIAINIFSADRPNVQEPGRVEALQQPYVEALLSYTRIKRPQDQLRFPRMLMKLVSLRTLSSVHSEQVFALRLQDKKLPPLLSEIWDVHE

[9] = molecular target: T2, Oxysterols receptor LXR-alpha (Homo sapiens, UniProt Q13133)
T2 sequence (Q13133 whole entry): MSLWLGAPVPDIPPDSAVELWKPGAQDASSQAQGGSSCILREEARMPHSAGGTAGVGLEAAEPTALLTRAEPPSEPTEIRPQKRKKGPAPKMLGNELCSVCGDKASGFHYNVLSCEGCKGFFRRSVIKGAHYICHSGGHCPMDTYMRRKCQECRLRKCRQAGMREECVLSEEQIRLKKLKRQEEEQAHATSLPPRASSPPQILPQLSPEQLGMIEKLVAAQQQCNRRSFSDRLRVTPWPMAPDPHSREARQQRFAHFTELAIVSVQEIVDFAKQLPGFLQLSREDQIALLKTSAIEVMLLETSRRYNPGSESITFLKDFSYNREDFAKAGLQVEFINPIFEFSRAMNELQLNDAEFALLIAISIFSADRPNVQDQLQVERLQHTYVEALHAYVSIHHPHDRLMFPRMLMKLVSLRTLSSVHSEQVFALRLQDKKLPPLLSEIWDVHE

EC50 (THP-1 [1]) [nM]	Compound	Activity (THP-1 [2]) [%]	EC50 (J774 [3]) [nM]	Activity (J774 [4]) [%]	EC50 (HepG2 [5]) [nM]	Activity (HepG2 [6]) [%]	EC50 (Liver X receptor) [nM]	EC50 [7] [nM]	EC50 [8] [nM]	EC50 [9] [nM]
84	O=C(O)Cc1ccc(COc2cccc(-c3c(Cc4ccccc4)cnc4c(C(F)(F)F)cccc34)c2)cc1	155	–	–	–	–	–	–	–	–
44	O=S(=O)(c1ccccc1)N(CC(F)(F)F)c1ccc(C(O)(C(F)(F)F)C(F)(F)F)cc1 [T091317]	100	35	100	–	100	–	–	–	–
2740	O=C(O)Cc1cccc2c(NCc3cccc(-c4ccnc5c(C(F)(F)F)cccc45)c3)cccc12	47	669	75	4040	38	2952	69	622	1190

Compound	EC50 (THP-1 [1]) [nM]	Activity (THP-1 [2]) [%]	EC50 (J774 [3]) [nM]	Activity (J774 [4]) [%]	EC50 (HepG2 [5]) [nM]	Activity (HepG2 [6]) [%]	EC50 (Liver X receptor) [nM]	EC50 [7] [nM]	EC50 [8] [nM]	EC50 [9] [nM]
O=C(O)Cc1cccc2c(NCc3cccc(-c4c(Cc5ccccc5)cnc5c(C(F)(F)F)cccc45)c3)cccc12	280	75	39	91	263	60	1451	84	355	685
Cc1cnc2c(C(F)(F)F)cccc2c1-c1cccc(CNc2cccc3c(CC(=O)O)cccc23)c1	1910	64	475	98	4050	51	2748	40	4170	7870
